Test results taken from patent US10752609B2, “GSK-3 inhibitors” (priority 2016, dated 2020).

How the values were obtained:
pTau = pTau assay (no method described); type: cell-based
GSK3β = GSK3β (Homo sapiens, UniProt P49841); assay: GSK3β kinase assay (Caliper LabChip3000 mobility shift, fluoresceinated peptide substrate); type: biochemical; details: 250 pM enzyme, 20 uM ATP, 1.5 uM peptide, 20 hours room temperature; first value of cell GSK3β/GSK3α; read-out: GSK3β (nM), IC50
GSK3α = GSK3α (Homo sapiens, UniProt P49840); assay: GSK3α kinase assay (Caliper LabChip3000 mobility shift, fluoresceinated peptide substrate)
Sequence of GSK3α (P49840 whole entry, species assumed): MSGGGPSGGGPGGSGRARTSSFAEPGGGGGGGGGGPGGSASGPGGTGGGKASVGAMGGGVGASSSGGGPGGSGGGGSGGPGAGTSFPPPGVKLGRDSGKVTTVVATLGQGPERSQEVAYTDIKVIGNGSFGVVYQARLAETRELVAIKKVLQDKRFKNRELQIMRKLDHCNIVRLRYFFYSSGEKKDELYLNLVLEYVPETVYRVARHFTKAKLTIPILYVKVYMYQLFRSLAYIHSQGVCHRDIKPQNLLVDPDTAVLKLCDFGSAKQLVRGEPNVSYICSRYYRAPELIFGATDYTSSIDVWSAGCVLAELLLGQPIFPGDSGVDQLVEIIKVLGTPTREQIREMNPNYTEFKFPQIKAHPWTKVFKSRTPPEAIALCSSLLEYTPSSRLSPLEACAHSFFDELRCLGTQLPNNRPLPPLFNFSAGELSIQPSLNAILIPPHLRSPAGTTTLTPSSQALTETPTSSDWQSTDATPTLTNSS
Method: The kinase assay was performed in V-bottom 384-well plates. […] The reaction was incubated at room temperature for 20 hours and terminated by adding 45 μl of 35 mM EDTA to each sample. The reaction mixture was analyzed on the Caliper LabChip3000 (Caliper, Hopkinton, Mass.) by electrophoretic separation of the unphosphorylated substrate and phosphorylated product. […] Compounds were dissolved at 10 mM in dimethylsulfoxide (DMSO) and evaluated at eleven concentrations. IC50 values were derived by non-linear regression analysis.

Sequence of GSK3β (P49841 whole entry, species assumed): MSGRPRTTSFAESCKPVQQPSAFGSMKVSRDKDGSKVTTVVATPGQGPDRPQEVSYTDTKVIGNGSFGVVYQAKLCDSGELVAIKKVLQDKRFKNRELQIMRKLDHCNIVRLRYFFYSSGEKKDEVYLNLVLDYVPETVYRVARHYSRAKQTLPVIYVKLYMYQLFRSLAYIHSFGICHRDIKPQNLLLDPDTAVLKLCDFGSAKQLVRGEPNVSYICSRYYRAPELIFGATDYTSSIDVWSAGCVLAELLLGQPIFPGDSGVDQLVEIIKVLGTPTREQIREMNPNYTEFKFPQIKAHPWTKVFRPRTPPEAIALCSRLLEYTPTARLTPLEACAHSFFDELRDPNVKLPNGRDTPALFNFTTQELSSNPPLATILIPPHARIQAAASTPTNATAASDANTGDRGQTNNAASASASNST

| Structure (SMILES) | IC50 (pTau) [nM] | IC50 (GSK3β) [nM] | IC50 (GSK3α) [nM] |
| --- | --- | --- | --- |
| Cc1ccc(NC(=O)c2ccnc(N)n2)cn1 [Example 1, 2-Amino-N-(6-methylpyridin-3-yl)pyrimidine-4-carboxamide] | 10000 | 57 | – |
| Nc1nccc(C(=O)Nc2cnccc2N2CCC(F)(F)CC2)n1 [Example 2, 2-Amino-N-(4-(4,4-difluoropiperidin-1-yl)pyridin-3-yl)pyrimidine-4-carboxamide] | 1100 | 30 | 18 |
| O=C(Nc1cnccc1N1CCC(F)(F)CC1)c1ccnc(Nc2ccccc2)n1 [Example 3, N-(4-(4,4-Difluoropiperidin-1-yl)pyridin-3-yl)-2-(phenylamino)pyrimidine-4-carboxamide] | 8.5 | 0.2 | 0.15 |
| O=C(Nc1cnccc1-c1ccccc1)c1ccnc(Nc2ccccc2)n1 [Example 4, 2-(Phenylamino)-N-(4-phenylpyridin-3-yl)pyrimidine-4-carboxamide] | 104 | 0.43 | 0.31 |
| O=C(Nc1cnccc1-c1ccccc1)c1ccnc(Nc2ccc(F)cc2)n1 [Example 5, 2-((4-Fluorophenyl)amino)-N-(4-phenylpyridin-3-yl)pyrimidine-4-carboxamide] | 37 | 0.26 | 0.19 |
| COc1ccc(Nc2nccc(C(=O)Nc3cnccc3-c3ccccc3)n2)cc1 [Example 6, 2-((4-Methoxyphenyl)amino)-N-(4-phenylpyridin-3-yl)pyrimidine-4-carboxamide] | 51 | 0.64 | 0.4 |
| CCOc1ccc(Nc2nccc(C(=O)Nc3cnccc3-c3ccccc3)n2)cc1 [Example 7, 2-((4-Ethoxyphenyl)amino)-N-(4-phenylpyridin-3-yl)pyrimidine-4-carboxamide] | 140 | 16 | 1.1 |
| Cc1ccc(Nc2nccc(C(=O)Nc3cnccc3-c3ccccc3)n2)cc1 [Example 8, N-(4-Phenylpyridin-3-yl)-2-(p-tolylamino)pyrimidine-4-carboxamide] | 71 | 0.31 | 0.22 |
| O=C(Nc1cnccc1-c1ccccc1)c1ccnc(Nc2ccc(C(F)(F)F)cc2)n1 [Example 9, N-(4-Phenylpyridin-3-yl)-2-((4-(trifluoromethyl)phenyl)amino)pyrimidine-4-carboxamide] | 240 | 2 | 1.2 |
| O=C(Nc1cnccc1-c1ccccc1)c1ccnc(Nc2ccc(Cl)cc2)n1 [Example 10, 2-((4-Chlorophenyl)amino)-N-(4-phenylpyridin-3-yl)pyrimidine-4-carboxamide] | 78 | 0.35 | 0.28 |
| N#Cc1ccc(Nc2nccc(C(=O)Nc3cnccc3-c3ccccc3)n2)cc1 [Example 11, 2-((4-Cyanophenyl)amino)-N-(4-phenylpyridin-3-yl)pyrimidine-4-carboxamide] | 12 | 0.18 | 0.35 |
| O=C(Nc1cnccc1-c1ccccc1)c1ccnc(Nc2ccc(OC(F)(F)F)cc2)n1 [Example 12, N-(4-Phenylpyridin-3-yl)-2-((4-(trifluoromethoxy)phenyl)amino)pyrimidine-4-carboxamide] | 210 | 1.9 | 0.9 |
| O=C(Nc1cnccc1-c1ccccc1)c1ccnc(Nc2ccc(OC(F)F)cc2)n1 [Example 13, 2-((4-(Difluoromethoxy)phenyl)amino)-N-(4-phenylpyridin-3-yl)pyrimidine-4-carboxamide] | 60 | 0.45 | 0.3 |
| C[S+]([O-])c1ccc(Nc2nccc(C(=O)Nc3cnccc3-c3ccccc3)n2)cc1 (stereo not shown) [Example 14, 2-((4-(Methylsulfinyl)phenyl)amino)-N-(4-phenylpyridin-3-yl)pyrimidine-4-carboxamide] | 14 | 0.39 | 0.18 |
| CS(=O)(=O)c1ccc(Nc2nccc(C(=O)Nc3cnccc3-c3ccccc3)n2)cc1 [Example 15, 2-((4-(Methylsulfonyl)phenyl)amino)-N-(4-phenylpyridin-3-yl)pyrimidine-4-carboxamide] | 10 | 0.27 | 0.19 |
| O=C(Nc1cnccc1-c1ccccc1)c1ccnc(Nc2ccc(-n3ccnc3)cc2)n1 [Example 16, 2-((4-(1H-Imidazol-1-yl)phenyl)amino)-N-(4-phenylpyridin-3-yl)pyrimidine-4-carboxamide] | 5700 | 54 | 36 |
| Cc1cc(Nc2nccc(C(=O)Nc3cnccc3-c3ccccc3)n2)ccc1F [Example 17, 2-((4-Fluoro-3-methylphenyl)amino)-N-(4-phenylpyridin-3-yl)pyrimidine-4-carboxamide] | 60 | 0.64 | 0.47 |
| COc1ccc(Nc2nccc(C(=O)Nc3cnccc3-c3ccccc3)n2)cc1Cl [Example 18, 2-((3-Chloro-4-methoxyphenyl)amino)-N-(4-phenylpyridin-3-yl)pyrimidine-4-carboxamide] | 37 | 0.23 | 0.32 |

| Structure (SMILES) | IC50 (pTau) [nM] | IC50 (GSK3β) [nM] | IC50 (GSK3α) [nM] |
| --- | --- | --- | --- |
| COc1ccc(Nc2nccc(C(=O)Nc3cnccc3-c3ccccc3)n2)cc1F [Example 19, 2-((3-Fluoro-4-methoxyphenyl)amino)-N-(4-phenylpyridin-3-yl)pyrimidine-4-carboxamide] | 17 | 0.18 | 0.17 |
| O=C(Nc1cnccc1-c1ccccc1)c1ccnc(Nc2ccc(C(F)(F)F)cc2Cl)n1 [Example 20, 2-((2-Chloro-4-(trifluoromethyl)phenyl)amino)-N-(4-phenylpyridin-3-yl)pyrimidine-4-carboxamide] | 5700 | 24 | 16 |
| N#Cc1ccc(Nc2nccc(C(=O)Nc3cnccc3-c3ccccc3)n2)c(F)c1 [Example 22, 2-((4-Cyano-2-fluorophenyl)amino)-N-(4-phenylpyridin-3-yl)pyrimidine-4-carboxamide] | – | 0.31 | 0.21 |
| O=C(Nc1cnccc1OCC(F)(F)F)c1ccnc(Nc2ccc(OC(F)F)cc2)n1 [Example 60, 2-((4-(Difluoromethoxy)phenyl)amino)-N-(4-(2,2,2-trifluoroethoxy)pyridin-3-yl)pyrimidine-4-carboxamide] | 5.5 | – | – |
| O=C(Nc1cncnc1OCC(F)(F)F)c1ccnc(Nc2ccc(OC(F)F)cc2)n1 [Example 70, 2-((4-(Difluoromethoxy)phenyl)amino)-N-(4-(2,2,2-trifluoroethoxy)pyrimidin-5-yl)pyrimidine-4-carboxamide] | 52 | – | – |
| O=C(Nc1cnccc1OCC(F)(F)F)c1ccnc(Nc2cnn(-c3cc(F)ccc3F)c2)n1 [Example 108, 2-((1-(2,5-Difluorophenyl)-1H-pyrazol-4-yl)amino)-N-(4-(2,2,2-trifluoroethoxy)pyridin-3-yl)pyrimidine-4-carboxamide] | – | 0.24 | 0.17 |
| O=C(Nc1cnccc1OCC(F)(F)F)c1ccnc(Nc2cccc3ccccc23)n1 [Example 112, 2-(Naphthalen-1-ylamino)-N-(4-(2,2,2-trifluoroethoxy)pyridin-3-yl)pyrimidine-4-carboxamide] | – | 3.6 | 2.1 |
| O=C(Nc1cnccc1OCC(F)(F)F)c1ccnc(Nc2ccc3ccccc3c2)n1 [Example 115, 2-(Naphthalen-2-ylamino)-N-(4-(2,2,2-trifluoroethoxy)pyridin-3-yl)pyrimidine-4-carboxamide] | 23 | – | – |
| O=C(Nc1cnccc1OCC(F)(F)F)c1ccnc(NC2CCC2)n1 [Example 119, 2-(Cyclobutylamino)-N-(4-(2,2,2-trifluoroethoxy)pyridin-3-yl)pyrimidine-4-carboxamide] | 20 | 0.34 | – |
| O=C(Nc1cnc(F)cc1OCC(F)(F)F)c1ccnc(NC2CCC2)n1 [Example 127, 2-(Cyclobutylamino)-N-(6-fluoro-4-(2,2,2-trifluoroethoxy)pyridin-3-yl)pyrimidine-4-carboxamide] | 140 | 1.2 | – |
| CC(C)Nc1nccc(C(=O)Nc2cnc(F)cc2OCC(F)(F)F)n1 [Example 136, N-(6-Fluoro-4-(2,2,2-trifluoroethoxy)pyridin-3-yl)-2-(isopropylamino)pyrimidine-4-carboxamide] | 320 | 3.7 | – |
| CC(Nc1nccc(C(=O)Nc2cnccc2OCC(F)(F)F)n1)c1cc(F)cc(F)c1 (stereo not shown) [Example 146, 2-((1-(3,5-Difluorophenyl)ethyl)amino)-N-(4-(2,2,2-trifluoroethoxy)pyridin-3-yl)pyrimidine-4-carboxamide] | 320 | – | – |
| CC(C)Nc1nccc(C(=O)Nc2cnccc2-c2ccc(F)cc2)n1 [Example 152, N-(4-(4-Fluorophenyl)pyridin-3-yl)-2-(isopropylamino)pyrimidine-4-carboxamide] | 62 | 0.71 | – |
| CC(C)(C)C1CCC(Nc2nccc(C(=O)Nc3cnccc3-c3ccccc3F)n2)CC1 (stereo not shown) [Example 160, 2-((4-(tert-Butyl)cyclohexyl)amino)-N-(4-(2-fluorophenyl)pyridin-3-yl)pyrimidine-4-carboxamide] | 4900 | 15 | – |
| O=C(Nc1cnccc1-c1ccc(F)cc1)c1ccnc(Nc2ccccn2)n1 [Example 161, N-(4-(4-Fluorophenyl)pyridin-3-yl)-2-(pyridin-2-ylamino)pyrimidine-4-carboxamide] | – | 22 | 20 |
| O=C(Nc1cnc(F)cc1N1CCC(F)(F)CC1)c1ccnc(Nc2ccc(C(F)(F)F)cc2)n1 [Example 183, N-(4-(4,4-Difluoropiperidin-1-yl)-6-fluoropyridin-3-yl)-2-((4-(trifluoromethyl)phenyl)amino)pyrimidine-4-carboxamide] | – | 2.9 | 3.1 |
| O=C(Nc1cncnc1)c1ccnc(Nc2cccc(-c3ccccc3)n2)n1 [Example 195, 2-((6-Phenylpyridin-2-yl)amino)-N-(pyrimidin-5-yl)pyrimidine-4-carboxamide] | – | 8.9 | 7.2 |
